Source: publication PMC9046974, “Construction of a Microfluidic Platform With Core-Shell CdSSe@ZnS Quantum Dot-Encoded Superparamagnetic Iron Oxide Microspheres for Screening and Locating Matrix Metalloproteinase-2 Inhibitors From Fruits of Rosa roxburghii” (Frontiers in Nutrition, 2022)

What follows are molecules tested against T1, matrix metalloproteinase-2 (Homo sapiens, UniProt P08253) (assay: Matrix metalloproteinase-2 inhibitory assay). Conditions: MMP-2 inhibition, 30 min at 37°C, absorbance 450 nm.
T1 construct: purchased not specified for the assay (Sigma Co. recombinant enzyme or a component of the Shanghai Easy Biotech Co. ELISA kit)
T1 sequence (P08253 110-660): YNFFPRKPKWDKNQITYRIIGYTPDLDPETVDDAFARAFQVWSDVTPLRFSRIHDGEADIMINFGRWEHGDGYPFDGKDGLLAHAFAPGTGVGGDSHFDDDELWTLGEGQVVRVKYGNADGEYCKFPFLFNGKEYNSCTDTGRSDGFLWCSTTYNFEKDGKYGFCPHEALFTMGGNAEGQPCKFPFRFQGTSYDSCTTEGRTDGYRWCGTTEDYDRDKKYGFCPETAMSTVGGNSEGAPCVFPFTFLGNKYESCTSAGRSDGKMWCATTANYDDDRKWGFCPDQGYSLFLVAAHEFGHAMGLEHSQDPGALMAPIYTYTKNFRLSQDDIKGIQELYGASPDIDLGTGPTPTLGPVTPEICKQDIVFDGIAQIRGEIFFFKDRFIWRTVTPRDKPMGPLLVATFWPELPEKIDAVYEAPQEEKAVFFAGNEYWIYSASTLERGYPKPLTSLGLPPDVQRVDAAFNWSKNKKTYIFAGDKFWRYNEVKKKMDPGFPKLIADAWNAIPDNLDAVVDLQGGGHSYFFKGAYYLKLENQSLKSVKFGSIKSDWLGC
Assay type: biochemical
Description: The inhibitory effects of binding ligands were evaluated as below. […] Test components were dissolved in the buffer to yield a gradient of concentrations between 1 and 200 μM. A total of 50 μl of test components and 100 μl of the enzyme solution were added to a 96-well plate and incubated for 30 min at 37°C. Afterward, the solution in the 96-well plate was discarded. The plate was dried on water adsorbing paper. A total of 200 μl of wash solution was added to each well and incubated for 30 s. Again, the solution in the 96-well plate was abandoned. The plate was dried on water adsorbing paper. This step was carried out five times. A total of 50 μl aliquots of solution A and 50 μl aliquots of solution B were added to each well and kept in a dark place for 15 min. As a result, 50 μl aliquots of stopping solution were pipetted into each well. The plate was monitored at the absorbance of 450 nm by using an automatic microplate reader.

Molecule | IC50 [µM]
O=c1oc2c(O)c(O)cc3c(=O)oc4c(O)c(O)cc1c4c23 [Ellagic acid, reference compound] | 37.8 ± 1.96
CC1=C2[C@H](/C=C(\C)C(=O)O)CC[C@@H](C)[C@H]2CC1 [Valerenic acid] | 82.5 ± 8.87
CC1(C)CC[C@]2(C(=O)O)CC[C@]3(C)C(=CC[C@@H]4[C@@]5(C)C[C@H](O)[C@H](O)[C@@](C)(C(=O)O)[C@@H]5CC[C@]43C)[C@@H]2C1 [Medicogenic acid, Medicagenic acid] | 64.1 ± 13.6
O=C(O[C@@H]1O[C@@H]2COC(=O)c3cc(O)c(O)c(O)c3-c3c(cc(O)c(O)c3O)C(=O)O[C@H]([C@H]1O)[C@@H]2O)c1cc(O)c(O)c(O)c1 [Corilagin] | 28.6 ± 2.83
Oreganol A | 30.8 ± 2.13

Now from value to molecule:

IC50 [µM] | Molecule
20.1 ± 1.55 | C[C@@H]1CC[C@]2(C(=O)O[C@@H]3O[C@H](CO)[C@@H](O)[C@H](O)[C@H]3O)CC[C@]3(C)C(=CC[C@@H]4[C@@]5(C)C[C@@H](O)[C@H](O)[C@@](C)(CO)[C@@H]5CC[C@]43C)[C@@H]2[C@]1(C)O [Niga-ichigoside F1]
23.2 ± 4.49 | COC(=O)[C@@]1(C)CC[C@]2(C(=O)O[C@@H]3O[C@H](CO)[C@@H](O)[C@H](O)[C@H]3O)CC[C@]3(C)C(=CC[C@@H]4[C@@]5(C)CC[C@H](O)[C@@](C)(CO)[C@@H]5CC[C@]43C)[C@@H]2C1 [Zebirioside O]
22 ± 2.15 | C[C@@H]1CC[C@]2(C(=O)O[C@@H]3O[C@H](CO)[C@@H](O)[C@H](O)[C@H]3O)CC[C@]3(C)C(=CC[C@@H]4[C@@]5(C)C[C@@H](O)[C@@H](O)C(C)(C)[C@@H]5CC[C@]43C)[C@@H]2[C@]1(C)O [Kajiichigoside F1]
20.7 ± 2.06 | C[C@@H]1CC[C@]2(C(=O)O[C@@H]3O[C@H](CO)[C@@H](O)[C@H](O)[C@H]3O)CC[C@]3(C)C(=CC[C@@H]4[C@@]5(C)C[C@@H](O)[C@H](O)C(C)(C)[C@@H]5CC[C@]43C)[C@@H]2[C@]1(C)O [Rosamultin]
23.2 ± 2.53 | Peduncloside
25.9 ± 5.66 | C=C1[C@H]2C3=CC[C@@H]4[C@@]5(C)C[C@@H](O)[C@H](O)[C@@](C)(CO)[C@@H]5CC[C@@]4(C)[C@]3(C)CC[C@@]2(C(=O)O[C@@H]2O[C@H](CO)[C@@H](O)[C@H](O)[C@H]2O)CC[C@H]1C [Quadranoside VIII]
25.5 ± 3.01 | C[C@@H]1CC[C@]2(C(=O)O[C@@H]3O[C@H](CO)[C@@H](O)[C@H](O)[C@H]3O)CC[C@]3(C)C(=CC[C@@H]4[C@@]5(C)C[C@@H](O)C(=O)C(C)(C)[C@@H]5CC[C@]43C)[C@@H]2[C@]1(C)O [Potentillanoside A]

Each molecule was assayed against T2, MS@PEI@QDs@PEI@MMP-2 (immobilized matrix metalloproteinase-2) (Homo sapiens, UniProt P08253) (assay: Microfluidic chip-based ligand fishing). Conditions: dissociated solution after microfluidic chip-based ligand fishing.
T2 construct: purchased Sigma Co; host or cells: HEK 293 cells
T2 sequence (P08253 110-660): T1 sequence (P08253 110-660)
Assay type: binding
Description: All ligand fishing experiments were performed on the microfluidic chip system. The microfluidic chip system consisted of six modules, namely, a microscope stand, a light-emitting diode surface light source, a charge-coupled device (CCD) camera, a temperature controller, an automated x-y-z translation stage (Wuhan Mesovision Biotechnology Co.) for controlling the movement of the microfluidic chip, and four syringe pumps (Baoding Lange Constant Current Pump Co.). Before use, the microfluidic chip was first treated with 1% tween 80 in n-hexadecane (v/v) through port a to make the whole chip surface hydrophobic. […] Under the monitoring of the top-view CCD camera, MS@PEI@QDs@PEI@MMP-2 were infused into the upper left port b, whereas extract of R. roxburghii was infused into upper right port c at an appropriate flow rate to allow the solution to meet the MS@PEI@QDs@PEI @MMP-2 at the junction. The mixture was incubated in the channel for a period. Then, 500 μl aliquots of wash solvent (PBS buffer) were infused into the port d. At the turning point, a small ring magnet trapped the MS@PEI@QDs@PEI@MMP-2. […] The linearity was analyzed by plotting the peak area of the ellagic acid against a series of concentrations (0.009–1.00 mg·ml^−1). The lower limit of quantification was determined as the analytical concentration at an S/N ratio of 10. […] The UV spectra were monitored at 254 nm. […]

extraction yield [%] | Molecule
76.6 | CNC(=O)[C@H](Cc1ccccc1)NC(=O)[C@H](CC(C)C)[C@H](CSc1cccs1)C(=O)NO [Batimastat]
